{"source": "patent US7939052B2", "about": "“Method of measuring the biological activity of an urotensin II receptor” (priority 2005, dated 2011)", "key": {"urotensin II receptor [1]": {"system": "urotensin II receptor", "test": "Inhibition of U-II induced increase in the redness or skin temperature of the rat ear", "type": "in vivo", "experimental": "(§1) Urantide (PUT-3639-P1, Peptide International) was administered or co-administered with U-II (3 μg/kg) to a rat via subcutaneous administration. The lateral inner ear surface temperature of the rat was measured using a Raytek High Performance Infra-red Thermometer at different time points, wherein the time point of Urantide administration or Urantide and U-II co-administration was marked as 0 minute.\n(§2) The nitric oxide syntheses inhibitor, N^g nitro-L-arginine methylester (L-NAME), or prostacyclin inhibitor, indomethacin, was administered to the rat alone or in combination with U-II. L-NAME (N5751, Sigma, 100 mg/kg) suspended in saline was administered to a rat via […] (i.p.) administration 4 hour prior to injecting the rat with the U-II. Indomethacin (17378, Sigma, 30 mg/kg) suspended in carboxymethylcellulose was administered to a rat via p.o. (per os, L—by mouth or orally) 2 hours prior to injecting the rat with the U-II. Dexamethasone (D1756, Sigma, 8 mg/kg) suspended in saline was administered to a rat via i.p. 2 hours prior to injecting the rat with the U-II. After taking a pre-dose or baseline ear surface temperature, 0.1 ml of U-II at various concentrations formulated in sterile normal saline was injection subcutaneously to the mid-scapular region of the rat. The lateral inner ear surface temperature of the rat was measured using a Raytek High Performance Infra-red Thermometer at different time points, wherein the time point of U-II injection was marked as 0 minutes."}, "urotensin II receptor [2]": {"system": "urotensin II receptor", "test": "Increase in the redness or skin temperature of the rat ear after administration of the substance", "type": "in vivo", "conditions": "data not shown", "experimental": "(§3) The examples described herein used conscious rat as the testing animal, although similar results were also observed from anesthetized rats. Other animals can also be utilized following similar procedures. All procedures involving animals were conducted in an animal facility fully accredited by the American Association for Assessment and Accreditation of Laboratory Animal Care (AAALAC) and in accordance with The Guide for the Care and Use of Laboratory Animals (NIH). Protocols were approved by the Internal Animal Care and Use Committee (IACUC). Results are expressed as mean±s.e. mean. Comparisons between groups were assessed using two-sided Student's t-test. P<0.05 was considered significant.\n(§4) Unless otherwise indicated, Rat U-II was obtained from SIGMA (U-7507, St Louis, Mo.). Urantide was purchased from Peptide International (PUT-3639-P1, Louisville, Ky.). Experiments were performed with male, Sprague-Dawley rats (Charles River, Wilmington, Mass.), weighing 250-350 g.\n(§5) Rats were acclimated at 18° C. for at least 1 hour before U-II administration. The room temperature was kept at 18° C. throughout ear surface temperature measurements. Rat U-II suspended in sterile saline (0.1 ml) at various concentrations was administered to a conscious rat via unilateral […] (i.p.) injection over a period of 5 second. In the serial dose experiment, serial doses of U-II were administered to a conscious rat via subcutaneous (s.c.) routes. The lateral inner ear surface temperature of the rat was measured using a Raytek High Performance Infra-red Thermometer (Raytek Corp., Santa Cruz, Calif.) at different time points.\nas §1\nas §2, with “Dexamethasone (D1756, Sigma, 8 mg/kg) suspended in saline was administered to a rat via i.p. 2 hours prior to injecting the rat with the U-II. After taking a pre-dose or baseline ear surface temperature, 0.1 ml of U-II at various concentrations formulated in sterile normal saline was injection subcutaneously to the mid-scapular region of the rat.” left out"}, "[3]": {"conditions": "rat, nicotinic acid administration; cited from earlier work"}, "urotensin II receptor [4]": {"target": "T1, urotensin II receptor (Rattus norvegicus, UniProt P49684)", "T1 construct": "from tissue; host or cells: whole animal: male Sprague-Dawley rats (Charles River), in vivo", "T1 sequence (P49684 1-386)": "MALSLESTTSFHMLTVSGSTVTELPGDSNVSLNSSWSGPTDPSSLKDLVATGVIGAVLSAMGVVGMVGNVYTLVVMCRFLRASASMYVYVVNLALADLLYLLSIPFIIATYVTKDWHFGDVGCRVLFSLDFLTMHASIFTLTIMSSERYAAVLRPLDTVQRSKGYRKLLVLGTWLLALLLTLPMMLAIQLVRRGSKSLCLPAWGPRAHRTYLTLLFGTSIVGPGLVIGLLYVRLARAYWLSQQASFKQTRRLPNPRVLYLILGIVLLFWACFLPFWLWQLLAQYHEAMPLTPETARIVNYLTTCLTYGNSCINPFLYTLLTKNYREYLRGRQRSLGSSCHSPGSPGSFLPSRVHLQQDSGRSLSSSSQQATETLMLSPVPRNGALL", "test": "Inhibition of U-II induced increase in the redness or skin temperature of the rat ear", "type": "in vivo", "conditions": "150 μg/kg co-administered s.c. with U-II 3 μg/kg", "experimental": "as §1, §2"}, "human UT receptor": {"target": "T2, human UT receptor (Homo sapiens, UniProt Q9UKP6)", "T2 construct": "host or cells: CHO cells over-expressing the human UT receptor", "T2 sequence (Q9UKP6 1-389)": "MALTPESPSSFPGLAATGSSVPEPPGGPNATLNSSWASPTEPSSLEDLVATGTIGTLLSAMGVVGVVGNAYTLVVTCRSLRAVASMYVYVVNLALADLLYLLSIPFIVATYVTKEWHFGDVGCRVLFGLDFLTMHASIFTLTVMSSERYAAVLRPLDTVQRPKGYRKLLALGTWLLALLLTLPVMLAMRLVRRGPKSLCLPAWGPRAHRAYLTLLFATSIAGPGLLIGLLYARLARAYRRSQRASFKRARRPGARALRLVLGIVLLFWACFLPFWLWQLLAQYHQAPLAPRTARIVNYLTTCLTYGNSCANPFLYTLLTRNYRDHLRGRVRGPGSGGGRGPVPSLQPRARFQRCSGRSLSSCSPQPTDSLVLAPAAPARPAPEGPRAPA", "conditions": "CHO cells over-expressing the human UT receptor; cited from earlier work"}, "urotensin II receptor [5]": {"target": "T1, urotensin II receptor", "test": "Increase in the redness or skin temperature of the rat ear after administration of the substance", "type": "in vivo", "experimental": "as §3, §4, §5, §1\nas §2, with “Dexamethasone (D1756, Sigma, 8 mg/kg) suspended in saline was administered to a rat via i.p. 2 hours prior to injecting the rat with the U-II. After taking a pre-dose or baseline ear surface temperature, 0.1 ml of U-II at various concentrations formulated in sterile normal saline was injection subcutaneously to the mid-scapular region of the rat.” left out"}, "[6]": {"system": "panel of receptor/ion channels", "test": "Binding to a panel of receptor/ion channels", "conditions": "data not shown"}, "UT receptor": {"target": "T3, UT receptor (Rattus norvegicus, UniProt P49684)", "T3 construct": "pure UT receptor antagonist in rat aorta vasoconstriction assays; host or cells: rat aorta tissue", "T3 sequence (P49684 1-386)": "T1 sequence (P49684 1-386)", "conditions": "competitive UT receptor antagonist, rat aorta; cited from earlier work"}}, "note": "Entries after “also recorded” stand apart in the source; their conditions may differ. Residues, ends and D or L forms follow the SMILES beside them.", "data": [{"compound": "COC(=O)[C@@H](N)CCCNC(=N)N[N+](=O)[O-]", "note": "[L-NAME, N^g nitro-L-arginine methylester]", "values": [{"measurement": "effect on U-II induced ear flush or increase of ear temperature", "setting": "urotensin II receptor [1]; 100 mg/kg i.p. 4 hour prior to U-II 3 μg/kg s.c., 100 mg/kg", "value": "blocked; also recorded: markedly inhibited"}, {"measurement": "ear flush or ear surface temperature change, substance alone", "setting": "urotensin II receptor [2]; 100 mg/kg i.p.", "value": "caused no ear flush or ear surface temperature change"}]}, {"compound": "COc1ccc2c(c1)c(CC(=O)O)c(C)n2C(=O)c1ccc(Cl)cc1", "note": "[indomethacin]", "values": [{"measurement": "effect on U-II induced ear flush or increase of ear temperature", "setting": "urotensin II receptor [1]; 30 mg/kg p.o. 2 hours prior to U-II 3 μg/kg s.c., 30 mg/kg", "value": "blocked"}, {"measurement": "effect on U-II induced ear flush or increase of ear temperature", "setting": "urotensin II receptor [1]; 30 mg/kg p.o. 2 hours prior to U-II 3 μg/kg s.c., listed as Indomethacin, 30 mg/kg", "value": "abolished"}, {"measurement": "ear flush or ear surface temperature change, substance alone", "setting": "urotensin II receptor [2]; 30 mg/kg p.o.", "value": "caused no ear flush or ear surface temperature change"}]}, {"compound": "O=C(O)c1cccnc1", "note": "[nicotinic acid]", "values": [{"measurement": "increase of the ear temperature", "setting": "[3]", "value": "less than 1.5 °C"}]}, {"compound": "CC(C)[C@H](NC(=O)[C@@H]1CSSC(C)(C)[C@H](NC(=O)[C@@H](N)CC(=O)O)C(=O)N[C@@H](Cc2ccccc2)C(=O)N[C@H](Cc2c[nH]c3ccccc23)C(=O)N[C@@H](CCCN)C(=O)N[C@@H](Cc2ccc(O)cc2)C(=O)N1)C(=O)O", "note": "[urantide] (HELM PEPTIDE1{D.[Pen].F.[dW].[Orn].Y.C.V}$PEPTIDE1,PEPTIDE1,2:R3-7:R3$$$V2.0)", "values": [{"measurement": "effect on U-II induced ear flush or increase of ear temperature", "setting": "urotensin II receptor [4]", "value": "blocked"}, {"measurement": "activity at human UT receptor", "setting": "human UT receptor", "value": "potent U-II agonist"}, {"measurement": "ear flush or ear surface temperature change, substance alone", "setting": "urotensin II receptor [5]; 150 μg/kg s.c.", "value": "caused no ear flush or ear surface temperature changes"}, {"measurement": "binding activity to proteins within a panel of receptor/ion channels", "setting": "[6]", "value": "minimal binding activity"}, {"measurement": "pA2", "setting": "UT receptor", "value": 8.3}]}, {"compound": "URP: U-II-related peptide, SEQ ID NO: 10, ACFWKYCV, intramolecular disulfide bond (PUT-4408-V, Peptide International)", "values": [{"measurement": "redness or skin temperature of the rat after administration", "setting": "urotensin II receptor [5]; URP 100 μg/kg s.c.", "value": "induced an increase in skin temperature; also recorded: induced an increase in the redness or skin temperature"}]}]}
